The text below walks through data of PubChem BioAssay AID1329 (NMMLSC, 2008).

Activity calls are given as the source filed them. The rule behind the calls is not given here.

Induced myeloid leukemia cell differentiation protein Mcl-1 (Homo sapiens), sequence (Q07820 whole entry, looked up): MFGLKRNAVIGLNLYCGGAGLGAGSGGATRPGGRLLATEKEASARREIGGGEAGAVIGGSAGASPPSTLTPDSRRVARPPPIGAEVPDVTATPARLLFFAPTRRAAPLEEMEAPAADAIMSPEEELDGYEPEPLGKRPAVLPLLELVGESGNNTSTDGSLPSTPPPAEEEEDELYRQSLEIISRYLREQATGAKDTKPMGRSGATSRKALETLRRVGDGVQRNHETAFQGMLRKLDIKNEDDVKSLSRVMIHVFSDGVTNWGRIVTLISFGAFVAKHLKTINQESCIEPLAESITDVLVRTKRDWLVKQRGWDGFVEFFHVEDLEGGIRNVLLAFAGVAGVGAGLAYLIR

The experiment addresses Induced myeloid leukemia cell differentiation protein Mcl-1 (Homo sapiens) (UniProt Q07820). Put plainly: modulators of Bim peptide binding to Mcl-1, dose response, biochemical, bead-based flow cytometry, multiplexed, human (AID 1329). The conditions noted are these: Bim peptide-Mcl-1 binding, MCF. (In flow cytometry, cells or beads pass a laser one at a time.)
With `CN1C(=O)/C(=C/c2ccc(-c3ccccc3[N+](=O)[O-])o2)SC1=Nc1ccc(Cl)c(C(=O)O)c1`, the percent span entry was “inactive”.

For `N#Cc1ccc(N=c2ssnc2Cl)cc1`, the percent span entry was “inactive”.

Turning to `C=CCn1c(C)c(C(C)=O)c(N2CCOCC2)nc1=S`, the percent span result was “inactive”.

With `FC(F)(F)c1ccc2c(c1)C1C=CCC1C(c1ccncc1)N2` (centres undefined), the percent span entry is “inactive”.

On to `N/C(=N\OC(=O)CCC1CCCC1)c1ccncc1`, for which the percent span entry is “inactive”.

Regarding `Cc1cccc(C(=O)N=c2c(C#N)cc3c(=O)n4cccc(C)c4nc3n2Cc2ccco2)c1`, the percent span entry is “inactive”.

`Cc1ccccc1/C=N/Nc1ccnc2cc(Cl)ccc12`: the percent span entry is “inactive”.

For `Cc1ccc(C)n1-c1ccc(N2CCOCC2)cc1`, the percent span entry is “inactive”.

As for `Brc1ccc2ncnc(Nc3ccc(N4CCOCC4)cc3)c2c1`, the percent span result was “inactive”.

Turning to `CC(=O)N1CCN(C(=O)c2ccc(-n3c(C)ccc3C)cc2)CC1`, the percent span entry was “inactive”.

For `CC1(C)SC(=S)N(NC(=O)Nc2ccccc2)C1N(O)C(=O)Nc1cccc2ccccc12` (centres undefined), the percent span entry is “inactive”.

`O=C(Nc1nccs1)c1ccc(COc2ccc(F)cc2)o1`: the percent span result was “inactive”.

For the molecule `CCOc1cc(/C=N/NC(=O)c2cccs2)cc([N+](=O)[O-])c1O`, the percent span entry is “inactive”.

`COP(=O)(CC(=O)O)c1ccccc1` (centres undefined): the percent span entry was “inactive”.

`CCOc1cccc(CNc2ccc(O)cc2)c1OCc1ccc(Cl)cc1`: the percent span entry was “inactive”.

As for `O=C(O)c1cccc(NC2=C(Cl)C(=O)c3ccccc3C2=O)c1`, the percent span entry is “inactive”.

On to `O=C(c1cccc(Br)c1)N1CCN(c2cnn(-c3ccccc3)c(=O)c2Cl)CC1`, for which the percent span result was “inactive”.

Regarding `CNc1ccc(Br)cc(C(=O)/C=C/c2cc(OC)ccc2OC)c1=O`, the percent span entry was “inactive”.

Turning to `CCOC(=O)c1cccc(Nc2ncnc3ccccc23)c1`, the percent span entry is “inactive”.

Turning to `O=C(NCc1ccco1)C1CC2CCC1C2` (centres undefined), the percent span result was “inactive”.

For the molecule `C=CS(=O)(=O)c1sc(Cl)c(N2CCOCC2)c1[N+](=O)[O-]`, the percent span result is “inactive”.

As for `COc1ccc(COC(=O)NNC(=O)c2ccccc2Cl)cc1`, the percent span entry is “inactive”.

For `COC(=O)c1sc2nc[nH]c(=O)c2c1C`, the percent span result is “inactive”.

With `CCCn1c(C)cc(-c2csc(N)n2)c1C`, the percent span entry is “inactive”.

As to `Cc1csc(Nc2ccccc2C(F)(F)F)n1`, the percent span entry was “inactive”.

As for `CN1CCN(c2ccccc2N)CC1`, the percent span entry was “inactive”.

As for `COc1cccc(N2CC(C(=O)Nc3nnc(SCC(=O)c4ccccc4)s3)CC2=O)c1` (centres undefined), the percent span entry was “inactive”.

For the molecule `O=C(O)c1ccc(NS(=O)(=O)c2ccc3c(c2)C(=O)c2ccccc2C3=O)cc1`, the percent span entry was “inactive”.

Take `Cc1cccc(/C=N/N(CCO)C2=NS(=O)(=O)c3ccccc32)c1`: the percent span entry is “inactive”.

On to `CCOc1cc(C2Nc3cccc4cccc(c34)N2)ccc1O`, for which the percent span result is “inactive”.

`O=C(C1=NN[C@@H]2C(=O)N(c3cccc(F)c3)C(=O)[C@H]12)c1ccc2ccccc2n1`: the percent span result was “inactive”.

As to `CN1CCS/C1=C/C=C1/SC(=S)N(Cc2ccccc2)C1=O`, the percent span entry is “inactive”.

Consider `Clc1ccc2c(N/N=C/c3cccc(Br)c3)ccnc2c1`, for which the percent span entry was “inactive”.

Turning to `CC(C(=O)Nc1cc([N+](=O)[O-])ccc1Cl)N1CCN(c2ccc(O)cc2)CC1` (centres undefined), the percent span entry is “inactive”.
